Columns and labels:
[1] = test system: AB (wild type) zebrafish embryos; conditions: in vivo
[2] = target: T1, metmyoglobin (metMb) (Equus caballus, UniProt P68082); test: Reaction of DNIC with metmyoglobin (nitroxyl transfer, UV-vis); format: biochemical; conditions: 10 μM DNIC + 10 μM metMb, 25 mM phosphate buffer pH 7.4
T1 construct: purchased TCl
Protocol: A typical procedure for nitroxyl-transfer reaction of DNIC-2 and metmyoglobin was described below using DNIC-2a as an example, whereas reaction of DNIC-2b/DNIC-2d and metMb follows the same procedure. 10 μM of metMb in 3.3 mL of 25 mM phosphate buffer (pH 7.4) was loaded in a 4-mL quartz cuvette and sealed with rubber septum under anaerobic N2 atmosphere. 10 μM of DNIC-2a (13.0 μL of 2.5 mM stock solution of DNIC-2a in THF) was added into this aqueous solution, which is thermostated at 25° C. UV-vis spectra of this reaction solution were measured after this reaction solution was incubated for 10 minutes.
A typical procedure for reaction of DNIC-1 and metmyoglobin was described below. To a 4-mL quartz cuvette containing 10 μM of metMb in 3.3 mL of 25 mM phosphate buffer (pH 7.4), 10 μM of DNIC-1, derived from 13.0 μL of 2.5 mM stock solution of DNIC-1 in THF was added via gas-tight syringe at room temperature. The reaction solution was incubated at ambient temperature for 8 hours. No change of UV-vis spectra for this reaction solution was observed.
In example 1, the reaction of a variety of DNICs with metmyoglobin was investigated so as to verify the universal role of bridging ligands, thiolate vs. pyrazolate, on dictating the NO^−-transfer reactivity.

[3] = test system: soluble guanylate cyclase (sGC); set-up: species or system C. elegans; conditions: in vivo
[4] = test system: Tg (kdr:EGFP) zebrafish embryos; conditions: in vivo
[5] = test system: WT-AB zebrafish embryos; conditions: in vivo

T1 sequence (P68082 2-154 limits assumed): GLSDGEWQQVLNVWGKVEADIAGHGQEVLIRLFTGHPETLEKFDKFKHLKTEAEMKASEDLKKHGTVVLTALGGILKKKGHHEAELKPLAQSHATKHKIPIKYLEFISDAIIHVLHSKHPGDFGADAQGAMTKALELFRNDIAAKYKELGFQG

CNC[C@H](O)c1ccc(O)c(O)c1 [Epinephrine, epinephrine, reference compound]
Cardiac Output [1]: 37.4 ± 6.1 nL/min
Fractional Shortening [1]: 0.25 ± 0.04
Heart Rate [1]: 144 ± 8 bpm
Short Axis Diameter ED(Dd) [1]: 80.9 ± 1.4 μm
Short Axis Diameter ES(Ds) [1]: 61.0 ± 2.5 μm
Ventricular Volume ED [1]: 0.46 ± 0.05 nL
Ventricular Volume ED-ES [1]: 0.26 ± 0.05 nL
Ventricular Volume ES [1]: 0.20 ± 0.03 nL

[(NO)2Fe(μ-^NH2Pyr)2Fe(NO)2] [DNIC-2a]
nitroxyl-transfer reactivity toward metmyoglobin (formation of MbNO, shift of UV-vis bands) [2]: nitroxyl transfer from DNIC-2a to metmyoglobin
increase of the GFP fluorescence signal in CX3553 worms [3]: about 5.7 fold
Vessel Diameter (dorsal aorta diameter) [4]: 25.6±0.6 μm
Cardiac Output [1]: 48.4 ± 4.5 nL/min
Fractional Shortening [1]: 0.28 ± 0.02
Heart Rate [1]: 145 ± 7 bpm
Short Axis Diameter ED(Dd) [1]: 83.3 ± 2.5 μm
Short Axis Diameter ES(Ds) [1]: 59.6 ± 1.7 μm
Ventricular Volume ED [1]: 0.55 ± 0.03 nL
Ventricular Volume ED-ES [1]: 0.34 ± 0.02 nL
Ventricular Volume ES [1]: 0.21 ± 0.02 nL
change of diameter of heart short-axis at end systole (ES) [1]: significant decrease
enhancement of cardiac output [1]: about 2 fold
enhancement of fractional shortening [1]: about 2 fold
Survival rate of zebrafish, Day 3 [5]: 100 ± 0.0%
Survival rate of zebrafish, Day 4 [5]: 99.6 ± 0.7%
Survival rate of zebrafish, Day 5 [5]: 98.4 ± 2.7%
acute toxicity on zebrafish embryo [5]: no acute toxicity
